Values of other authors, collected in patent publication US8003637B2, “Stabilized atypical antipsychotic formulation” (Handa Pharmaceuticals, LLC, priority 2008, dated 2011).
Read-outs that look alike come from different tables or passages of the source.

Details: Merck Index

| volume of water in which 1 gram can dissolve (boiling water) | volume of water in which 1 gram can dissolve (cold water) | amount soluble in 100 grams of water (25° C.) | SMILES |
| --- | --- | --- | --- |
| 1 mL | 13 mL | – | O=C(O)CCC(=O)O [succinic acid, 1,4-butanedioic acid] |
| – | – | 0.63 grams | O=C(O)/C=C/C(=O)O [fumaric acid, (E)-butenedioic acid] |
